From patent publication US12472170B2, “Use of glutamate 2B receptor antagonists and sigma receptor agonists as antitussives” (Seyltx, Inc., priority 2019, dated 2025)
Several values for one entry are separate records, joined by “and”; a condition that tells them apart may be missing. Equal entries are not always repeated.

Tested on: citric acid (1M) evoked cough in guinea pigs
Experiment: Citric acid (1M) aerosol-evoked coughs and sneezes in conscious guinea pigs after oral pre-treatment
Assay type: in vivo, Male Dunkin Hartley guinea pigs
Protocol: The guinea pig species used in one study was twenty four Male Dunkin Hartley guinea pigs, each weighing between 300 and 350 g, which were supplied by Marshall Bioresources Ltd, UK.
A test compound, Ifenprodil, and Gefapixant (in powder form) were prepared and formulated by initially adding 100% propylene glycol at the required volume for the final treatment buffer. The additional buffer ingredients were added in a stepwise fashion, initially solutol and then captisol. Each ingredient was added in a volume equivalent to that which is required for the final volume of treatment buffer for the stock formulation.
In particular, for Gefapixant, this was 0.7 mg/mL, a concentration that delivers 3.5 mg/Kg in a dose volume of 5 mL/Kg. For Ifenprodil, this was 0.3 mg/mL, a concentration that delivers 1.5 mg/Kg in a dose volume of 5 mL/Kg.
Prior to the addition of each buffer ingredient, the test compound formulations were sonicated for 15 min using a Branson 1510 Sonicator. Afterwards, the initial formulation of the test compound and Gefapixant were diluted with a prepared buffer vehicle to provide additional dosing formulations. This was 0.01 to 0.2 mg/ml, preferably 0.06 mg/mL, a dose that delivers 0.3 mg/Kg in a dose volume of 5 mL/Kg.
The final test compound buffer vehicle comprised of 10:10:80 mix of propylene glycol:20% Solutol in PBS:5% Captisol in PBS.
All final test and control formulations were sonicated for 30 min prior to dosing to generate an even suspension or to ensure that the formulation had visibly dissolved.
The animals were first pre-treated (5 mL/Kg, p.o.) with the vehicle, the test compound, or Gefapixant prior to tussive agent (citric acid) exposure, using the amounts set out in Table 1 below. In each case, the route of administration of the treatment was oral.
Animals receiving Gefapixant (3.5 mg/Kg) were dosed 2 hours prior to tussive agent exposure. Animals receiving Ifenprodil (1.5 mg/Kg) were dosed 30 minutes prior to tussive agent exposure.
10 min prior to the tussive evaluation, each animal was individually placed into a purpose built exposure chamber with a supplied airflow through a nebuliser of 2 L/min, and allowed to settle into its new environment.
Following the acclimatisation period, each animal was then exposed for 10 min to an aerosol of 1M citric acid using an ultrasonic nebuliser (Aerogen) set at a nominal liquid consumption rate of 0.6 mL/min.
Coughs and sneezes elicited during the 10 minute aerosol of 1M citric acid, and a subsequent 5 minute observation period, were recorded manually to monitor the animal's welfare. […] The data was analysed for onset of cough, cough numbers and frequency, and sneezes.
The following measurements and assessments were taken for each guinea pig: • Mean total number of coughs evoked in each treatment group • Mean onset of first cough in each group • Mean number of coughs per minute during citric acid exposure in each treatment group
Inter-group deviations were statistically analyzed by a one-way analysis of variance (ANOVA). In the case of significant difference in the mean values among the different levels of treatment, comparisons versus the citric acid vehicle group were carried out using the Dunnett's test. p<0.05 was considered statistically significant.

[1] = Mean of n=6 animals, 10 min Citric acid (1M) exposure, Gefapixant 3.5 mg/Kg p.o., Ifenprodil 1.5 mg/Kg
[2] = Mean of n=6 animals, Post Exposure (5 mins) after 10 min Citric acid (1M), Gefapixant 3.5 mg/Kg p.o., Ifenprodil 1.5 mg/Kg
[3] = Total of n=6 animals, 10 min Citric acid (1M) exposure, Gefapixant 3.5 mg/Kg p.o., Ifenprodil 1.5 mg/Kg
[4] = Total of n=6 animals, Post Exposure (5 mins) after 10 min Citric acid (1M), Gefapixant 3.5 mg/Kg p.o., Ifenprodil 1.5 mg/Kg
[5] = individual animals (ID 1-6), 10 min Citric acid (1M) exposure, Gefapixant 3.5 mg/Kg p.o., Ifenprodil 1.5 mg/Kg
[6] = individual animals (ID 1-6), Post Exposure (5 mins) after 10 min Citric acid (1M), Gefapixant 3.5 mg/Kg p.o., Ifenprodil 1.5 mg/Kg

`C[C@@H]([C@H](O)c1ccc(O)cc1)N1CCC(Cc2ccccc2)CC1` (racemic) [Ifenprodil, 4-[2-(4-benzylpiperidin-1-ium-1-yl)-1-hydroxypropyl] phenol; 2,3,4-trihydroxy-4-oxobutanoate] was tested, and the “Total Coughs, Mean” value (10 min citric acid (1M) exposure + 5 min post exposure, group mean, n=6) was 17.17, the “Total Coughs, individual animal” value (10 min citric acid (1M) exposure + 5 min post exposure, individual animals 1-6) was 16 (2×) and 17 and 23 and 19 and 12 and the “average number of coughs per animal (total number of coughs)” value (10 min citric acid (1M) exposure + 5 min recovery, Gefapixant 3.5 mg/Kg p.o. 2 hrs prior, Ifenprodil 1.5 mg/Kg p.o. 30 min prior, n=6) was 17.17 coughs per animal. For the same compound, the “reduction in mean cough frequency vs untreated control” value (Ifenprodil 1.5 mg/kg (p<0.01), Gefapixant 3.5 mg/kg (p<0.05)) was 42%, the “Sneezes, Observation Period 0-1, group Mean” value [1] was 0.2 and the “Sneezes, Observation Period 1-2, group Mean” value [1] was 0.5. The “Sneezes, Observation Period 2-3, group Mean” value [1] was 0.3, the “Sneezes, Observation Period 3-4, group Mean” value [1] was 0.3 and the “Sneezes, Observation Period 4-5, group Mean” value [1] was 0.5. The “Sneezes, Observation Period 5-6, group Mean” value [1] was 0.3, the “Sneezes, Observation Period 6-7, group Mean” value [1] was 0.7 and the “Sneezes, Observation Period 7-8, group Mean” value [1] was 0.5. The “Sneezes, Observation Period 8-9, group Mean” value [1] was 0.0, the “Sneezes, Observation Period 9-10, group Mean” value [1] was 0.0 and the “Sneezes, Observation Period 10-11, group Mean” value [2] was 0.0. For the same compound, the “Sneezes, Observation Period 11-12, group Mean” value [2] was 0.0, the “Sneezes, Observation Period 12-13, group Mean” value [2] was 0.0 and the “Sneezes, Observation Period 13-14, group Mean” value [2] was 0.0. For the same compound, the “Sneezes, Observation Period 14-15, group Mean” value [2] was 0.0, the “Total Sneezes, group Mean” value (Mean of n=6 animals, whole observation period 0-15 (10 min Citric acid (1M) exposure + Post Exposure 5 mins), Gefapixant 3.5 mg/Kg p.o., Ifenprodil 1.5 mg/Kg) was 3.33 and the “Sneezes, Observation Period 0-1, group Total” value [3] was 1.0. The “Sneezes, Observation Period 1-2, group Total” value [3] was 3.0, the “Sneezes, Observation Period 2-3, group Total” value [3] was 2.0 and the “Sneezes, Observation Period 3-4, group Total” value [3] was 2.0. For the same compound, the “Sneezes, Observation Period 4-5, group Total” value [3] was 3.0, the “Sneezes, Observation Period 5-6, group Total” value [3] was 2.0 and the “Sneezes, Observation Period 6-7, group Total” value [3] was 4.0. The “Sneezes, Observation Period 7-8, group Total” value [3] was 3.0, the “Sneezes, Observation Period 8-9, group Total” value [3] was 0.0 and the “Sneezes, Observation Period 9-10, group Total” value [3] was 0.0. For the same compound, the “Sneezes, Observation Period 10-11, group Total” value [4] was 0.0, the “Sneezes, Observation Period 11-12, group Total” value [4] was 0.0 and the “Sneezes, Observation Period 12-13, group Total” value [4] was 0.0. The “Sneezes, Observation Period 13-14, group Total” value [4] was 0.0, the “Sneezes, Observation Period 14-15, group Total” value [4] was 0.0 and the “first onset of cough” value (citric acid (1M) exposure, Gefapixant 3.5 mg/Kg p.o., Ifenprodil 1.5 mg/Kg p.o., group mean, n=6) was 59.8 s. For the same compound, the “average number of sneezes per animal” value (citric acid (1M) exposure, Gefapixant 3.5 mg/Kg p.o., Ifenprodil 1.5 mg/Kg p.o., n=6) was 3.33 sneezes per animal, the “Onset (sec), Mean” value (citric acid (1M) exposure, group mean, n=6) was 59.8 s and the “Onset (sec), individual animal” value (citric acid (1M) exposure, individual animals 1-6) was 65 sec and 69 sec and 43 sec (2×) and 72 sec and 67 sec. For the same compound, the “Sneezes, Observation Period 0-1” value [5] was 0 (5×) and 1, the “Sneezes, Observation Period 1-2” value [5] was 1 (3×) and 0 (3×) and the “Sneezes, Observation Period 2-3” value [5] was 0 (4×) and 1 (2×). For the same compound, the “Sneezes, Observation Period 3-4” value [5] was 1 (2×) and 0 (4×), the “Sneezes, Observation Period 4-5” value [5] was 0 (4×) and 1 and 2 and the “Sneezes, Observation Period 5-6” value [5] was 1 (2×) and 0 (4×). The “Sneezes, Observation Period 6-7” value [5] was 1 (4×) and 0 (2×), the “Sneezes, Observation Period 7-8” value [5] was 0 (3×) and 1 (3×) and the “Sneezes, Observation Period 8-9” value [5] was 0. For the same compound, the “Sneezes, Observation Period 9-10” value [5] was 0, the “Sneezes, Observation Period 10-11” value [6] was 0 and the “Sneezes, Observation Period 11-12” value [6] was 0. The “Sneezes, Observation Period 12-13” value [6] was 0, the “Sneezes, Observation Period 13-14” value [6] was 0 and the “Sneezes, Observation Period 14-15” value [6] was 0. The “Total Sneezes” value (individual animals (ID 1-6), whole observation period 0-15 (10 min Citric acid (1M) exposure + Post Exposure 5 mins), Gefapixant 3.5 mg/Kg p.o., Ifenprodil 1.5 mg/Kg) was 4 and 3 (3×) and 5 and 2, the “Cough, observation period 0-1, Mean” value (min 0-1 of citric acid (1M) exposure, group mean, n=6) was 0.7 and the “Cough, observation period 0-1, individual animal” value (min 0-1 of citric acid (1M) exposure, individual animals 1-6) was 0 (3×) and 1 (2×) and 2. For the same compound, the “Cough, observation period 0-1, Total” value (min 0-1 of citric acid (1M) exposure, sum over 6 animals) was 4.0, the “Cough, observation period 1-2, Mean” value (min 1-2 of citric acid (1M) exposure, group mean, n=6) was 1.5 and the “Cough, observation period 1-2, individual animal” value (min 1-2 of citric acid (1M) exposure, individual animals 1-6) was 1 (3×) and 2 (3×). The “Cough, observation period 1-2, Total” value (min 1-2 of citric acid (1M) exposure, sum over 6 animals) was 9.0, the “Cough, observation period 2-3, Mean” value (min 2-3 of citric acid (1M) exposure, group mean, n=6) was 2.3 and the “Cough, observation period 2-3, individual animal” value (min 2-3 of citric acid (1M) exposure, individual animals 1-6) was 3 (4×) and 2 and 0. The “Cough, observation period 2-3, Total” value (min 2-3 of citric acid (1M) exposure, sum over 6 animals) was 14.0, the “Cough, observation period 3-4, Mean” value (min 3-4 of citric acid (1M) exposure, group mean, n=6) was 2.2 and the “Cough, observation period 3-4, individual animal” value (min 3-4 of citric acid (1M) exposure, individual animals 1-6) was 3 (2×) and 2 (3×) and 1. The “Cough, observation period 3-4, Total” value (min 3-4 of citric acid (1M) exposure, sum over 6 animals) was 13.0, the “Cough, observation period 4-5, Mean” value (min 4-5 of citric acid (1M) exposure, group mean, n=6) was 2.5 and the “Cough, observation period 4-5, individual animal” value (min 4-5 of citric acid (1M) exposure, individual animals 1-6) was 3 (4×) and 2 and 1. For the same compound, the “Cough, observation period 4-5, Total” value (min 4-5 of citric acid (1M) exposure, sum over 6 animals) was 15.0, the “Cough, observation period 5-6, Mean” value (min 5-6 of citric acid (1M) exposure, group mean, n=6) was 2.3 and the “Cough, observation period 5-6, individual animal” value (min 5-6 of citric acid (1M) exposure, individual animals 1-6) was 2 (4×) and 3 (2×). The “Cough, observation period 5-6, Total” value (min 5-6 of citric acid (1M) exposure, sum over 6 animals) was 14.0, the “Cough, observation period 6-7, Mean” value (min 6-7 of citric acid (1M) exposure, group mean, n=6) was 1.3 and the “Cough, observation period 6-7, individual animal” value (min 6-7 of citric acid (1M) exposure, individual animals 1-6) was 1 (3×) and 2 and 0 and 3. The “Cough, observation period 6-7, Total” value (min 6-7 of citric acid (1M) exposure, sum over 6 animals) was 8.0, the “Cough, observation period 7-8, Mean” value (min 7-8 of citric acid (1M) exposure, group mean, n=6) was 1.7 and the “Cough, observation period 7-8, individual animal” value (min 7-8 of citric acid (1M) exposure, individual animals 1-6) was 1 (2×) and 2 (4×). The “Cough, observation period 7-8, Total” value (min 7-8 of citric acid (1M) exposure, sum over 6 animals) was 10.0, the “Cough, observation period 8-9, Mean” value (min 8-9 of citric acid (1M) exposure, group mean, n=6) was 1.0 and the “Cough, observation period 8-9, individual animal” value (min 8-9 of citric acid (1M) exposure, individual animals 1-6) was 0 (2×) and 1 (3×) and 3. The “Cough, observation period 8-9, Total” value (min 8-9 of citric acid (1M) exposure, sum over 6 animals) was 6.0, the “Cough, observation period 9-10, Mean” value (min 9-10 of citric acid (1M) exposure, group mean, n=6) was 0.8 and the “Cough, observation period 9-10, individual animal” value (min 9-10 of citric acid (1M) exposure, individual animals 1-6) was 1 (3×) and 0 (2×) and 2. For the same compound, the “Cough, observation period 9-10, Total” value (min 9-10 of citric acid (1M) exposure, sum over 6 animals) was 5.0, the “Cough, observation period 10-11, Mean” value (min 10-11, post exposure, group mean, n=6) was 0.7 and the “Cough, observation period 10-11, individual animal” value (min 10-11, post exposure, individual animals 1-6) was 0 (2×) and 1 (4×). For the same compound, the “Cough, observation period 10-11, Total” value (min 10-11, post exposure, sum over 6 animals) was 4.0, the “Cough, observation period 11-12, Mean” value (min 11-12, post exposure, group mean, n=6) was 0.2 and the “Cough, observation period 11-12, individual animal” value (min 11-12, post exposure, individual animals 1-6) was 1 and 0 (5×). For the same compound, the “Cough, observation period 11-12, Total” value (min 11-12, post exposure, sum over 6 animals) was 1.0, the “Cough, observation period 12-13, Mean” value (min 12-13, post exposure, group mean, n=6) was 0.0 and the “Cough, observation period 12-13, individual animal” value (min 12-13, post exposure, individual animals 1-6) was 0. For the same compound, the “Cough, observation period 12-13, Total” value (min 12-13, post exposure, sum over 6 animals) was 0.0, the “Cough, observation period 13-14, Mean” value (min 13-14, post exposure, group mean, n=6) was 0.0 and the “Cough, observation period 13-14, individual animal” value (min 13-14, post exposure, individual animals 1-6) was 0. The “Cough, observation period 13-14, Total” value (min 13-14, post exposure, sum over 6 animals) was 0.0, the “Cough, observation period 14-15, Mean” value (min 14-15, post exposure, group mean, n=6) was 0.0 and the “Cough, observation period 14-15, individual animal” value (min 14-15, post exposure, individual animals 1-6) was 0. The “Cough, observation period 14-15, Total” value (min 14-15, post exposure, sum over 6 animals) was 0.0 and the “anti-tussive effect (in words)” value (oral administration, conscious guinea pigs with citric acid) was “shows efficacy in preventing and/or alleviating coughing”.
